IC50 data for 43 compounds are collected here from patent US10273237B2, “Imidazopyridazine compounds useful as modulators of IL-12, IL-23 and/or IFN-α responses” (BRISTOL-MYERS SQUIBB COMPANY, priority 2013, dated 2019).

In assay [1] the test system is IFNα-stimulated Kit225 T cells with STAT-dependent luciferase reporter. As to the kind of experiment: Kit225 T cell assay, STAT-dependent luciferase reporter, IFNα stimulated. The format is cell-based, human. Particulars: 5-6 hours, read-out: IFNa Kit225 Reporter, LE (IC50). As for the experimental part: (§1) Kit225 T cells with a stably-integrated STAT-dependent luciferase reporter were plated in RPMI (GIBCO) containing 10% heat-inactivated FBS (GIBCO) and 100 U/mL PenStrep (GIBCO). The cells were then stimulated with either 20 ng/mL human recombinant IL-23 or 200 U/mL human recombinant IFNα (PBL InterferonSource) for 5-6 hours. Luciferase expression was measured using the STEADY-GLO® Luciferase Assay System (PROMEGA®) according to the manufacturer's instructions.

In assay [2] the test system is IL-23-stimulated Kit225 T cells with STAT-dependent luciferase reporter. As to the kind of experiment: Kit225 T cell assay, STAT-dependent luciferase reporter, IL-23 stimulated. In kind it is cell-based, human. Particulars: read-out: IL-23 Kit225 Reporter, LE (IC50). As for the experimental part: as §1
In general terms: A reporter such as luciferase makes a cellular process visible.

[3] abbreviates: 200 U/mL human recombinant IFNα.
[4] abbreviates: 20 ng/mL human recombinant IL-23, 5-6 hours.
Setting [5] is: Homo sapiens, KIT225, 200 U/mL human recombinant IFNα.
The mark [6] stands for this setting: Homo sapiens, KIT225, 20 ng/mL human recombinant IL-23, 5-6 hours.

The term pIC50 denotes the negative decadic logarithm of the IC50, by convention in mol/L.

Molecules are shown by their SMILES. pIC50: −log10 of the molar value. Like-named read-outs stand apart in the source and are kept apart here.

For `CNc1cc(Nc2cncn(-c3cccc(C(C)O)n3)c2=O)nn2c(C(=O)NC3CCC3)cnc12` (racemic) [Example 87], the pIC50 was 6.80 in assay [1] (setting [3]) and 6.66 in assay [2] (setting [4]).

For `CCC(C)NC(=O)c1cnc2c(NC)cc(Nc3cccn(C)c3=O)nn12` (single isomer, unassigned) [Example 72], the pIC50 is 6.36 in assay [1] (setting [3]) and 6.34 in assay [2] (setting [4]).

`CCC(C)NC(=O)c1cnc2c(NC)cc(Nc3cccn(C)c3=O)nn12` (single isomer, unassigned) [Example 73]: the pIC50 in assay [1] (setting [3]) is 6.92; in assay [2] (setting [4]) it was 6.72.

`CCC(C)NC(=O)c1cnc2c(NC)cc(Nc3cccn(-c4ccc(C)nn4)c3=O)nn12` (single isomer, unassigned) [Example 75]: the pIC50 in assay [1] (setting [3]) was 6.89; in assay [2] (setting [4]), 6.72.

Consider `CCC(C)NC(=O)c1cnc2c(NC)cc(Nc3cncn(-c4ccccn4)c3=O)nn12` (single isomer, unassigned) [Example 76], for which the pIC50 was 6.25 in assay [1] (setting [3]) and 6.39 in assay [2] (setting [4]).

Consider `CNc1cc(Nc2cccn(C)c2=O)nn2c(C(=O)NC3(C#N)CC3)cnc12` [Example 1, N-(1-Cyanocyclopropyl)-6-(1-methyl-2-oxo-1,2-dihydropyridin-3-ylamino)-8-(methylamino)imidazo[1,2-b]pyridazine-3-carboxamide], for which the pIC50 in assay [1] (setting [5]) was 6.51; in assay [2] (setting [6]) it was 6.32.

Consider `CNc1cc(Nc2cccn(-c3ccc(C#N)cc3)c2=O)nn2c(C(=O)NC3CC3)cnc12` [Example 2, 6-((1-(4-Cyanophenyl)-2-oxo-1,2-dihydropyridin-3-yl)amino)-N-cyclopropyl-8-(methylamino)imidazo[1,2-b]pyridazine-3-carboxamide], for which the pIC50 in assay [1] (setting [5]) was 7.05; in assay [2] (setting [6]) it was 6.80.

Consider `CNc1cc(Nc2cccn(-c3ccccc3)c2=O)nn2c(C(=O)NC(CO)CCl)cnc12` (centres unmarked) [Example 4, N-(1-Chloro-3-hydroxypropan-2-yl)-8-(methylamino)-6-(2-oxo-1-phenyl-1,2-dihydropyridin-3-ylamino)imidazo[1,2-b]pyridazine-3-carboxamide], for which the pIC50 is 6.49 in assay [1] (setting [5]) and 6.28 in assay [2] (setting [6]).

Regarding `CNc1cc(Nc2cccn(-c3nccc(C(F)(F)F)n3)c2=O)nn2c(C(=O)NC3CCC3)cnc12` [Example 5, N-Cyclobutyl-8-(methylamino)-6-((2-oxo-1-(4-(trifluoromethyl)pyrimidin-2-yl)-1,2-dihydropyridin-3-yl)amino)imidazo[1,2-b]pyridazine-3-carboxamide], the pIC50 in assay [1] (setting [5]) and in assay [2] (setting [6]) was 6.82 each time.

On to `CNc1cc(Nc2cccn(-c3ccccc3)c2=O)nn2c(C(=O)N[C@@H]3CCOC3)cnc12` [Example 7, (R)-8-(Methylamino)-6-((2-oxo-1-phenyl-1,2-dihydropyridin-3-yl)amino)-N-(tetrahydrofuran-3-yl)imidazo[1,2-b]pyridazine-3-carboxamide], for which the results for the pIC50 in assay [1] (setting [5]) and in assay [2] (setting [6]) were 6.52 and 6.57, respectively.

Take `CNc1cc(Nc2ccnn(-c3ccccc3)c2=O)nn2c(C(=O)NC3CCC3)cnc12` [Example 8, N-Cyclobutyl-8-(methylamino)-6-((3-oxo-2-phenyl-2,3-dihydropyridazin-4-yl)amino)imidazo[1,2-b]pyridazine-3-carboxamide]: the pIC50 in assay [1] (setting [5]) is 6.42; in assay [2] (setting [6]), 6.17.

As for `CNc1cc(Nc2cccn(C)c2=O)nn2c(C(=O)NCC(C)(C)CO)cnc12` [Example 9, N-(3-Hydroxy-2,2-dimethylpropyl)-6-((1-methyl-2-oxo-1,2-dihydropyridin-3-yl)amino)-8-(methylamino)imidazo[1,2-b]pyridazine-3-carboxamide], the pIC50 in assay [1] (setting [5]) was 7.40; in assay [2] (setting [6]), 6.92.

Take `CNc1cc(Nc2cccn(-c3ccc(F)cc3)c2=O)nn2c(C(=O)NC3CC3)cnc12` [Example 10]: the pIC50 in assay [1] (setting [3]) was 6.92; in assay [2] (setting [4]) it was 6.82.

Regarding `CNc1cc(Nc2cc(F)cn(C)c2=O)nn2c(C(=O)NC3(C#N)CC3)cnc12` [Example 11], the negative-log IC50 (pIC50) in assay [1] (setting [3]) was 6.59; in assay [2] (setting [4]), 6.51.

`CNc1cc(Nc2cccn(-c3ccc(F)cc3)c2=O)nn2c(C(=O)NC3(C#N)CC3)cnc12` [Example 12]: the pIC50 in assay [1] (setting [3]) is 7.00; in assay [2] (setting [4]), 6.77.

Regarding `CNc1cc(Nc2cccn(-c3ccc(C#N)cc3)c2=O)nn2c(C(=O)NC3(C#N)CC3)cnc12` [Example 13], the pIC50 in assay [1] (setting [3]) is 6.64; in assay [2] (setting [4]), 6.82.

With `CNc1cc(Nc2cccn(-c3ccc(F)cc3)c2=O)nn2c(C(=O)NCC(C)(CO)CO)cnc12` [Example 14], the values for the pIC50 in assay [1] (setting [3]) and in assay [2] (setting [4]) were 6.34 and 6.24, respectively.

With `CNc1cc(Nc2cc(F)cn(CC3CC3)c2=O)nn2c(C(=O)NC3CC3)cnc12` [Example 15], the pIC50 in assay [1] (setting [3]) was 6.57; in assay [2] (setting [4]), 6.72.

As to `CNc1cc(Nc2cc(F)cn(CC3CC3)c2=O)nn2c(C(=O)NC3(C#N)CC3)cnc12` [Example 16], the figures for the pIC50 in assay [1] (setting [3]) and in assay [2] (setting [4]) were 6.44 and 6.40, respectively.

Regarding `CNc1cc(Nc2cccn(-c3ccc(F)nc3)c2=O)nn2c(C(=O)NC3CC3)cnc12` [Example 17], the results for the pIC50 in assay [1] (setting [3]) and in assay [2] (setting [4]) were 6.74 and 6.62, respectively.

As for `CNc1cc(Nc2cccn(-c3ccc(C(F)F)cc3)c2=O)nn2c(C(=O)NC3CC3)cnc12` [Example 18], the pIC50 was 6.82 in assay [1] (setting [3]) and 6.32 in assay [2] (setting [4]).

Turning to `CNc1cc(Nc2cccn(-c3ccc(C(F)F)cc3)c2=O)nn2c(C(=O)NCC(C)(CO)CO)cnc12` [Example 19], the pIC50 in assay [1] (setting [3]) was 6.40; in assay [2] (setting [4]) it was 6.48.

`CNc1cc(Nc2cccn(-c3ccc(C(F)F)cc3)c2=O)nn2c(C(=O)NC3(C#N)CC3)cnc12` [Example 20]: the pIC50 in assay [1] (setting [3]) was 7.10; in assay [2] (setting [4]), 6.89.

With `CNc1cc(Nc2cc(F)cn(CCF)c2=O)nn2c(C(=O)NC3CC3)cnc12` [Example 21], the pIC50 in assay [1] (setting [3]) is 6.96; in assay [2] (setting [4]), 6.21.

For the compound `CNc1cc(Nc2cc(Cl)cn(C)c2=O)nn2c(C(=O)NC3CC3)cnc12` [Example 22], the values for the pIC50 in assay [1] (setting [3]) and in assay [2] (setting [4]) were 7.30 and 6.82, respectively.

Consider `CNc1cc(Nc2cc(Cl)cn(C)c2=O)nn2c(C(=O)NC3(C#N)CC3)cnc12` [Example 23], for which the pIC50 in assay [1] (setting [3]) was 7.70; in assay [2] (setting [4]) it was 7.15.

In the case of `CNc1cc(Nc2cc(F)cn(C)c2=O)nn2c(C(=O)NCC(C)(C)CO)cnc12` [Example 24], the pIC50 is 7.40 in assay [1] (setting [3]) and 6.82 in assay [2] (setting [4]).

Consider `CNc1cc(Nc2cccn(-c3ccc(C(C)(C)O)cc3)c2=O)nn2c(C(=O)NC3CC3)cnc12` [Example 26], for which the pIC50 in assay [1] (setting [3]) is 6.96; in assay [2] (setting [4]) it was 6.57.

As for `CNc1cc(Nc2cccn(-c3ccc(C(C)(C)O)cc3)c2=O)nn2c(C(=O)NC3(C#N)CC3)cnc12` [Example 27], the pIC50 was 6.35 in assay [1] (setting [3]) and 6.18 in assay [2] (setting [4]).

`CNc1cc(Nc2cccn(-c3ccc(F)nc3)c2=O)nn2c(C(=O)NC3(C#N)CC3)cnc12` [Example 28]: the pIC50 is 6.52 in assay [1] (setting [3]) and 6.22 in assay [2] (setting [4]).

Turning to `CNc1cc(Nc2cccn(-c3ccc(F)cc3)c2=O)nn2c(C(=O)NCC3(CO)CC3)cnc12` [Example 29], the pIC50 in assay [1] (setting [3]) is 6.70; in assay [2] (setting [4]) it was 6.47.

For `CNc1cc(Nc2cc(F)cn(C)c2=O)nn2c(C(=O)NCC3(CO)CC3)cnc12` [Example 30], the pIC50 in assay [1] (setting [3]) is 6.70; in assay [2] (setting [4]), 6.41.

In the case of `CNc1cc(Nc2cccn(-c3ccc(F)cn3)c2=O)nn2c(C(=O)NCC(C)(C)CO)cnc12` [Example 33], the pIC50 in assay [1] (setting [3]) was 6.59; in assay [2] (setting [4]), 6.55.

As to `CNc1cc(Nc2cccn(-c3ccccn3)c2=O)nn2c(C(=O)NC3CCC3)cnc12` [Example 34], the pIC50 in assay [1] (setting [3]) was 7.30; in assay [2] (setting [4]) it was 7.22.

For `CNc1cc(Nc2cccn(-c3ccc(F)cn3)c2=O)nn2c(C(=O)NC3CC3)cnc12` [Example 36], the pIC50 in assay [1] (setting [3]) and in assay [2] (setting [4]) was 7.00 each time.

Consider `CNc1cc(Nc2cccn(-c3ccc(F)cn3)c2=O)nn2c(C(=O)N[C@@H]3C[C@@H]3F)cnc12` [Example 37], for which the pIC50 is 7.52 in assay [1] (setting [3]) and 7.70 in assay [2] (setting [4]).

In the case of `CNc1cc(Nc2cccn(-c3ccc(F)nc3)c2=O)nn2c(C(=O)N[C@@H]3C[C@@H]3F)cnc12` [Example 40], the values for the pIC50 in assay [1] (setting [3]) and in assay [2] (setting [4]) were 7.30 and 6.80, respectively.

Turning to `CNc1cc(Nc2cccn(-c3ncccc3F)c2=O)nn2c(C(=O)NC3CC3)cnc12` [Example 41], the negative-log IC50 (pIC50) in assay [1] (setting [3]) is 7.22; in assay [2] (setting [4]), 7.10.

Take `CNc1cc(Nc2cccn(-c3ncccc3F)c2=O)nn2c(C(=O)N[C@@H]3C[C@@H]3F)cnc12` [Example 42]: the pIC50 is 7.70 in assay [1] (setting [3]) and 7.30 in assay [2] (setting [4]).

On to `CNc1cc(Nc2cc(Cl)cn(C)c2=O)nn2c(C(=O)NC3(C#N)CCC3)cnc12` [Example 43], for which the pIC50 is 6.96 in assay [1] (setting [3]) and 6.23 in assay [2] (setting [4]).

Turning to `CNc1cc(Nc2cccn(C3CC3)c2=O)nn2c(C(=O)NC3CC3)cnc12` [Example 44], the results for the pIC50 in assay [1] (setting [3]) and in assay [2] (setting [4]) were 6.89 and 6.42, respectively.

Regarding `CNc1cc(Nc2cccn(C3CC3)c2=O)nn2c(C(=O)NC3(C#N)CC3)cnc12` [Example 45], the pIC50 is 6.70 in assay [1] (setting [3]) and 6.43 in assay [2] (setting [4]).

With `CNc1cc(Nc2cccn(-c3cccc(C)n3)c2=O)nn2c(C(=O)NC3CC3)cnc12` [Example 46], the pIC50 in assay [1] (setting [3]) is 6.80; in assay [2] (setting [4]), 6.44.
